From patent US11319289B2, “5-hydroxy pyridine-based compound for use as P2X1 and P2X3 receptor antagonist and pharmaceutical composition comprising same” (GWANGJU INSTITUTE OF SCIENCE AND TECHNOLOGY, priority 2017, dated 2022)

Biological target: T1, hERG K+ channel (Homo sapiens, UniProt Q12809)
T1 construct: host or cells: CHO-K1 Tet-On hERG cells
Test: hERG K+ channel patch-clamp assay in CHO-K1 Tet-On hERG cells
Format: cell-based
Method: 2-2. hERF Channel Test Method
hERG K^+ Channel Conventional Patch-Clamp Assay
CHO-K1 cells expressing hERG channels via an inducible Tet-On gene expression system (CHO-K1 Tet-On hERG cells) were purchased from IonGate Biosciences GmbH (Frankfurt, Germany). CHO-K1 Tet-On hERG cells were incubated in Dulbecco's modified Eagle's medium (DMEM) containing 10% (v/v) fetal bovine serum, penicillin (100 U/mL), streptomycin (100 μg/mL), fungizone (2.5 μg/mL), as well as selection antibiotics, geneticin G418 (200 μg/mL), hygromycin (200 μg/mL) and puromycin (2 μg/mL) in a humidified condition of 5% CO2 at 37° C. The cells were passaged by treatment with trypsin-EDTA every three days. […]
NPC-16 Patchliner (Nanion Technologies, Munchen, Germany), an automated patch-clamp apparatus, was used for the whole-cell recordings. Whole-cell currents were recorded using an intracellular solution (unit in mM) containing 50 KCl, 60 KF, 10 NaCl, 2 MgCl2, 20 EGTA and 10 HEPES (pH 7.2) and an extracellular solution (unit in mM) containing 140 NaCl, 4 KCl, 2 CaCl2, 1MgCl2, 5 glucose and 10 HEPES (pH 7.4). […]
hERG channel currents were recorded using a parallel EPC-10 patch clamp amplifier (HEKA Elektronik, Lambrecht/Pfalz, Germany), and low-pass filtering (10 kHz) was performed with a 4-pole Bessel filter. […]

T1 sequence (Q12809 whole entry): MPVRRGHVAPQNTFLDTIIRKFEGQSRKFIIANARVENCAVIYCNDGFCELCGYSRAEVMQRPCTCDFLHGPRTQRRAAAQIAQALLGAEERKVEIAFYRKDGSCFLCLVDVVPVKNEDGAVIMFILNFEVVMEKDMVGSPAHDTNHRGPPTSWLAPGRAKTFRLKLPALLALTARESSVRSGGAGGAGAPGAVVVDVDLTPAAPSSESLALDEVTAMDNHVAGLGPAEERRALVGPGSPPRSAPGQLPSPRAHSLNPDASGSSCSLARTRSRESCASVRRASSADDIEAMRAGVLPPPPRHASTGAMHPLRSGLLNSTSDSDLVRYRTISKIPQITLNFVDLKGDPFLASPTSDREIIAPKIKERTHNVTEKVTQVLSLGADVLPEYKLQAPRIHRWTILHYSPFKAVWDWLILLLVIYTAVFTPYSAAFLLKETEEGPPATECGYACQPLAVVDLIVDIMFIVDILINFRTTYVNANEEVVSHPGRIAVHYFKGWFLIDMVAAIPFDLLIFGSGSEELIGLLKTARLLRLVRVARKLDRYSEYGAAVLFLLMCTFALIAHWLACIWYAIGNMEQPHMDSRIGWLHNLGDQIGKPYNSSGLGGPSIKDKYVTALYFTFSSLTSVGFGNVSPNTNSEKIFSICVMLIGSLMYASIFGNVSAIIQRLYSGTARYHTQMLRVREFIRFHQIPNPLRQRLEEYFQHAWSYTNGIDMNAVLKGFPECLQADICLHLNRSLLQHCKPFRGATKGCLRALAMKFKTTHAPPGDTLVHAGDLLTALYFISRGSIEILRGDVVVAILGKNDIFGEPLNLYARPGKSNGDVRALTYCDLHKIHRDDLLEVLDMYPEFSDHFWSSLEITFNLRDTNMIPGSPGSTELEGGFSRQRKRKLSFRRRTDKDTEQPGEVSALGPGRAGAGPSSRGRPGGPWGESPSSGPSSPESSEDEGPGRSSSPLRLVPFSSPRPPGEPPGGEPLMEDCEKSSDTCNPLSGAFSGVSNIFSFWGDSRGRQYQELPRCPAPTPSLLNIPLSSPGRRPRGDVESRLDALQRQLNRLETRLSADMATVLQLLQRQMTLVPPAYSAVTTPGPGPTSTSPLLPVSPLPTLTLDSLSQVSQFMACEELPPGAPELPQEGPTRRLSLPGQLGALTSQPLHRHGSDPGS

## CCCc1nc(Cc2cccc(Oc3ccccc3)c2)c(C)c(C(=O)O)c1O [Compound 29, 3-Hydroxy-5-methyl-6-(3-phenoxybenzyl)-2-propylisonicotinic acid]
Patch clamp, CHO-K1 Tet-On hERG cells
  IC50: > 100 µM
Result in words
  in vitro inhibitory activity against hERG channels: did not show any inhibitory activity
